{
  "source": "patent US10253081B2",
  "about": "“Glucagon analogues” (Zealand Pharma A/S, priority 2012, dated 2019)",
  "key": {"[1]": {"test": "Sub-chronic effects on adiposity/body weight in diet-induced obese mice", "format": "in vivo, C57BL/6J mice", "conditions": "DIO mice, 5 nmol/kg s.c. twice daily for 31 days", "method": "Male C57BL/6J mice (Taconic A/S, Denmark) at an age of 5 weeks were maintained on a 12:12 hour light-dark cycle on a high-fat diet (60% of total energy from fat, D12492, Research Diet Inc.) for 20 weeks. All mice (housed 2 per cage) were then mock-treated for a week to acclimatize the animals to handling and injections. Subsequently, the mice were stratified according to body fat mass (measured by magnetic resonance technique) and body weight into 9 groups (n=9-12). Animals were thereafter treated twice daily with subcutaneous injections (5 ml/kg) of vehicle (25 mM phosphate buffer, pH 7.4) or test substances (5 nmol/kg per administration, in equivalent amount of vehicle) for a total of 31 days. The daily injections were given at the start and at the end of the light phase. Body weight, food and water intake were determined daily throughout the study. The data are presented in Table 6 as mean body weight change±S.E.M. S.E.M. is defined as standard error of the mean and was calculated using the formula: S.E.M.=SD/square root (n), where SD is the standard deviation and n the number of observations (in this case animals/group).\nStatistical analyses were performed using Graph Pad Prism version 5. The measured parameters were compared using one-way ANOVA followed by Dunnett's multiple comparison test. Differences were considered statistically significant at p<0.05."}, "[2]": {"target": "T1, endogenous glucagon receptor (Rattus norvegicus, UniProt P30082)", "T1 construct": "Agonistic activity of the test compounds on endogenous glucagon receptor; endogenous in cells; host or cells: primary rat hepatocytes", "T1 sequence (P30082 27-485)": "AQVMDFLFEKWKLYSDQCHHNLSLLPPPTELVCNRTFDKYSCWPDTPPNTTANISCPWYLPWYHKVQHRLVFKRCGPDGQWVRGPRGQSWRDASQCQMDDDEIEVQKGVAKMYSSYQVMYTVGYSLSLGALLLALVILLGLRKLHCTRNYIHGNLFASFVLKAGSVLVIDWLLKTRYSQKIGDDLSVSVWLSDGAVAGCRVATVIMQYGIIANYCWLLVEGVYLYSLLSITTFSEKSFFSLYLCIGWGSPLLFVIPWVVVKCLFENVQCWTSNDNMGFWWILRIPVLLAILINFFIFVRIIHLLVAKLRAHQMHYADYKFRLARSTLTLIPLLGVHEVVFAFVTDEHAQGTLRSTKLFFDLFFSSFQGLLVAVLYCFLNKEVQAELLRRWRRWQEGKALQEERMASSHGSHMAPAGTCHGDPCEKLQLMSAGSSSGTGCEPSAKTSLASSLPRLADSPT", "test": "Agonistic activity on endogenous glucagon receptor (glycogen synthesis rate in primary rat hepatocytes)", "format": "cell-based", "conditions": "inhibition of glycogen synthesis rate, 3 hours, read-out: EC50 GLP-1R Rat hepat.", "method_in_brief": "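Primary rat hepatocytes (40,000 cells/well, cultured 24 h) incubated 3 h with compound in KRBH buffer with 0.1% BSA, 22.5 mM glucose and D-[U14C]glucose. 14C incorporated into precipitated glycogen counted, background-subtracted and expressed as % of 0.1% DMSO vehicle (100% CTL). pEC50 from cpm versus log concentration; agonism lowers glycogen synthesis.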"}},
  "note": "*1 amine or outer side, *2 acyl side, *3 side chain or, on linkers, in order; H or OH if unused. Where a SMILES comes first, the peptide text is derived from it. Side-chain parts run from the residue outwards. [ ]: non-standard residue; d: D form. The star is where a group is joined. γGlu = O=C(O)[C@H](CCC(=O)[*:2])N[*:1]; Palmitoyl = CCCCCCCCCCCCCCCC(=O)*; Aib = CC(C)(N)C(=O)O",
  "data": [
    {"compound": "CCCCCCCCCCCCCCCC(=O)N[C@@H](CCC(=O)NCCCC[C@H](NC(=O)[C@H](CO)NC(=O)[C@H](CC(=O)O)NC(=O)[C@H](CC(C)C)NC(=O)[C@H](Cc1ccc(O)cc1)NC(=O)[C@H](CCCCN)NC(=O)[C@H](CO)NC(=O)[C@H](Cc1ccc(O)cc1)NC(=O)[C@H](CC(=O)O)NC(=O)[C@H](CO)NC(=O)[C@@H](NC(=O)[C@H](Cc1ccccc1)NC(=O)[C@@H](NC(=O)CNC(=O)[C@H](CCC(N)=O)NC(=O)[C@H](CO)NC(=O)[C@@H](N)Cc1c[nH]cn1)[C@@H](C)O)[C@@H](C)O)C(=O)N[C@@H](C)C(=O)N[C@@H](C)C(=O)N[C@@H](CCC(=O)O)C(=O)N[C@@H](CC(=O)O)C(=O)N[C@@H](Cc1ccccc1)C(=O)N[C@H](C(=O)N[C@@H](CCC(=O)O)C(=O)N[C@@H](Cc1c[nH]c2ccccc12)C(=O)N[C@@H](CC(C)C)C(=O)N[C@@H](CC(C)C)C(=O)N[C@@H](CCCNC(=N)N)C(=O)N[C@@H](C)C(N)=O)C(C)C)C(=O)O", "note": "[Compound 7, H-HSQGTFTSDYSKYLDS-K(Hexadecanoyl-isoGlu)-AAEDFVEWLLRA-NH2] (H-HSQGTFTSDYSKYLDSK([γGlu-Palmitoyl])AAEDFVEWLLRA-NH2)", "values": [
      {"measurement": "Mean body weight change", "setting": "[1]", "result": "−8.7", "unit": "%"},
      {"measurement": "EC50", "setting": "[2]", "result": 1.92, "unit": "nM"}
    ]},
    {"compound": "CCCCCCCCCCCCCCCC(=O)N[C@@H](CCC(=O)NCCCC[C@H](NC(=O)[C@H](CO)NC(=O)[C@H](CC(=O)O)NC(=O)[C@H](CC(C)C)NC(=O)[C@H](Cc1ccc(O)cc1)NC(=O)[C@H](CCCCN)NC(=O)[C@H](CO)NC(=O)[C@H](Cc1ccc(O)cc1)NC(=O)[C@H](CC(=O)O)NC(=O)[C@H](CO)NC(=O)[C@@H](NC(=O)[C@H](Cc1ccccc1)NC(=O)[C@@H](NC(=O)CNC(=O)[C@H](CCC(N)=O)NC(=O)[C@H](CO)NC(=O)[C@@H](N)Cc1c[nH]cn1)[C@@H](C)O)[C@@H](C)O)C(=O)N[C@@H](C)C(=O)N[C@@H](C)C(=O)N[C@@H](Cc1c[nH]cn1)C(=O)N[C@@H](CC(=O)O)C(=O)N[C@@H](Cc1ccccc1)C(=O)N[C@H](C(=O)N[C@@H](CCC(=O)O)C(=O)N[C@@H](Cc1c[nH]c2ccccc12)C(=O)N[C@@H](CC(C)C)C(=O)N[C@@H](CC(C)C)C(=O)N[C@@H](CO)C(=O)N[C@@H](C)C(=O)O)C(C)C)C(=O)O", "note": "[Compound 2, H-HSQGTFTSDYSKYLDS-K(Hexadecanoyl-isoGlu)-AAHDFVEWLLSA-OH] (H-HSQGTFTSDYSKYLDSK([γGlu-Palmitoyl])AAHDFVEWLLSA-OH)", "values": [
      {"measurement": "Mean body weight change", "setting": "[1]", "result": "−5.1", "unit": "%"},
      {"measurement": "EC50", "setting": "[2]", "result": 0.43, "unit": "nM"}
    ]},
    {"compound": "CCCCCCCCCCCCCCCC(=O)N[C@@H](CCC(=O)NCCCC[C@H](NC(=O)[C@H](CCC(=O)O)NC(=O)[C@H](CC(=O)O)NC(=O)[C@H](CC(C)C)NC(=O)[C@H](Cc1ccc(O)cc1)NC(=O)[C@H](CCCCN)NC(=O)[C@H](CO)NC(=O)[C@H](Cc1ccc(O)cc1)NC(=O)[C@H](CC(=O)O)NC(=O)[C@H](CO)NC(=O)[C@@H](NC(=O)[C@H](Cc1ccccc1)NC(=O)[C@@H](NC(=O)CNC(=O)[C@H](CCC(N)=O)NC(=O)C(C)(C)NC(=O)[C@@H](N)Cc1c[nH]cn1)[C@@H](C)O)[C@@H](C)O)C(=O)N[C@@H](C)C(=O)N[C@@H](C)C(=O)N[C@@H](CCCCN)C(=O)N[C@@H](CC(=O)O)C(=O)N[C@@H](Cc1ccccc1)C(=O)N[C@H](C(=O)N[C@@H](CCC(=O)O)C(=O)N[C@@H](Cc1c[nH]c2ccccc12)C(=O)N[C@@H](CC(C)C)C(=O)N[C@@H](CCC(=O)O)C(=O)N[C@@H](CO)C(=O)N[C@@H](C)C(N)=O)[C@@H](C)CC)C(=O)O", "note": "[Compound 15, H-H-Aib-QGTFTSDYSKYLDE-K(Hexadecanoyl-isoGlu)-AAKDFIEWLESA-NH2]", "values": [
      {"measurement": "Mean body weight change", "setting": "[1]", "result": "−10.9", "unit": "%"},
      {"measurement": "EC50", "setting": "[2]", "result": 0.17, "unit": "nM"}
    ]},
    {"compound": "CCCCCCCCCCCCCCCC(=O)N[C@@H](CCC(=O)NCCCC[C@H](NC(=O)[C@H](CCC(=O)O)NC(=O)[C@H](CC(=O)O)NC(=O)[C@H](CC(C)C)NC(=O)[C@H](Cc1ccc(O)cc1)NC(=O)[C@H](CCCCN)NC(=O)[C@H](CO)NC(=O)[C@H](Cc1ccc(O)cc1)NC(=O)[C@H](CC(=O)O)NC(=O)[C@H](CO)NC(=O)[C@@H](NC(=O)[C@H](Cc1ccccc1)NC(=O)[C@@H](NC(=O)CNC(=O)[C@H](CCC(N)=O)NC(=O)C(C)(C)NC(=O)[C@@H](N)Cc1c[nH]cn1)[C@@H](C)O)[C@@H](C)O)C(=O)N[C@@H](CCCNC(=N)N)C(=O)N[C@@H](C)C(=O)N[C@@H](CCCCN)C(=O)N[C@@H](CC(=O)O)C(=O)N[C@@H](Cc1ccccc1)C(=O)N[C@H](C(=O)N[C@@H](CCC(=O)O)C(=O)N[C@@H](Cc1c[nH]c2ccccc12)C(=O)N[C@@H](CC(C)C)C(=O)N[C@@H](CC(C)C)C(=O)N[C@@H](CO)C(=O)N[C@@H](C)C(=O)O)[C@@H](C)CC)C(=O)O", "note": "[Compound 14, H-H-Aib-QGTFTSDYSKYLDE-K(Hexadecanoyl-isoGlu)-RAKDFIEWLLSA-OH] (H-H[Aib]QGTFTSDYSKYLDEK([γGlu-Palmitoyl])RAKDFIEWLLSA-OH)", "values": [
      {"measurement": "Mean body weight change", "setting": "[1]", "result": "−9.5", "unit": "%"},
      {"measurement": "EC50", "setting": "[2]", "result": 0.1, "unit": "nM"}
    ]},
    {"compound": "CCCCCCCCCCCCCCCC(=O)N[C@@H](CCC(=O)NCCCC[C@H](NC(=O)[C@H](CO)NC(=O)[C@H](CC(=O)O)NC(=O)[C@H](CC(C)C)NC(=O)[C@H](Cc1ccc(O)cc1)NC(=O)[C@H](CCCCN)NC(=O)[C@H](CO)NC(=O)[C@H](Cc1ccc(O)cc1)NC(=O)[C@H](CC(=O)O)NC(=O)[C@H](CO)NC(=O)[C@@H](NC(=O)[C@H](Cc1ccccc1)NC(=O)[C@@H](NC(=O)CNC(=O)[C@H](CCC(N)=O)NC(=O)[C@H](CO)NC(=O)[C@@H](N)Cc1c[nH]cn1)[C@@H](C)O)[C@@H](C)O)C(=O)N[C@@H](C)C(=O)N[C@@H](C)C(=O)N[C@@H](Cc1c[nH]cn1)C(=O)N[C@@H](CC(=O)O)C(=O)N[C@@H](Cc1ccccc1)C(=O)N[C@H](C(=O)N[C@@H](CCC(=O)O)C(=O)N[C@@H](Cc1c[nH]c2ccccc12)C(=O)N[C@@H](CC(C)C)C(=O)N[C@@H](CC(C)C)C(=O)N[C@@H](CCCNC(=N)N)C(=O)O)C(C)C)C(=O)O", "note": "[Compound 9, H-HSQGTFTSDYSKYLDS-K(Hexadecanoyl-isoGlu)-AAHDFVEWLLR-OH] (H-HSQGTFTSDYSKYLDSK([γGlu-Palmitoyl])AAHDFVEWLLR-OH)", "values": [
      {"measurement": "EC50", "setting": "[2]", "result": 0.37, "unit": "nM"}
    ]},
    {"compound": "CCCCCCCCCCCCCCCC(=O)N[C@@H](CCC(=O)NCCCC[C@H](NC(=O)[C@H](CO)NC(=O)[C@H](CC(=O)O)NC(=O)[C@H](CC(C)C)NC(=O)[C@H](Cc1ccc(O)cc1)NC(=O)[C@H](CCCNC(=N)N)NC(=O)[C@H](CO)NC(=O)[C@H](Cc1ccc(O)cc1)NC(=O)[C@H](CC(=O)O)NC(=O)[C@H](CO)NC(=O)[C@@H](NC(=O)[C@H](Cc1ccccc1)NC(=O)[C@@H](NC(=O)CNC(=O)[C@H](CCC(N)=O)NC(=O)[C@H](CO)NC(=O)[C@@H](N)Cc1c[nH]cn1)[C@@H](C)O)[C@@H](C)O)C(=O)N[C@@H](C)C(=O)N[C@@H](C)C(=O)N[C@@H](Cc1c[nH]cn1)C(=O)N[C@@H](CC(=O)O)C(=O)N[C@@H](Cc1ccccc1)C(=O)N[C@H](C(=O)N[C@@H](CCC(=O)O)C(=O)N[C@@H](Cc1c[nH]c2ccccc12)C(=O)N[C@@H](CC(C)C)C(=O)N[C@@H](CC(C)C)C(=O)N[C@@H](CO)C(=O)N[C@@H](C)C(N)=O)C(C)C)C(=O)O", "note": "[Compound 12, H-HSQGTFTSDYSRYLDS-K(Hexadecanoyl-isoGlu)-AAHDFVEWLLSA-NH2] (H-HSQGTFTSDYSRYLDSK([γGlu-Palmitoyl])AAHDFVEWLLSA-NH2)", "values": [
      {"measurement": "EC50", "setting": "[2]", "result": 0.24, "unit": "nM"}
    ]},
    {"compound": "CCCCCCCCCCCCCCCC(=O)N[C@@H](CCC(=O)NCCCC[C@H](NC(=O)[C@H](CO)NC(=O)[C@H](CC(=O)O)NC(=O)[C@H](CC(C)C)NC(=O)[C@H](Cc1ccc(O)cc1)NC(=O)[C@H](CCCCN)NC(=O)[C@H](CO)NC(=O)[C@H](Cc1ccc(O)cc1)NC(=O)[C@H](CC(=O)O)NC(=O)[C@H](CO)NC(=O)[C@@H](NC(=O)[C@H](Cc1ccccc1)NC(=O)[C@@H](NC(=O)CNC(=O)[C@H](CCC(N)=O)NC(=O)C(C)(C)NC(=O)[C@@H](N)Cc1c[nH]cn1)[C@@H](C)O)[C@@H](C)O)C(=O)N[C@@H](C)C(=O)N[C@@H](C)C(=O)N[C@@H](CCC(=O)O)C(=O)N[C@@H](CC(=O)O)C(=O)N[C@@H](Cc1ccccc1)C(=O)N[C@H](C(=O)N[C@@H](CCC(=O)O)C(=O)N[C@@H](Cc1c[nH]c2ccccc12)C(=O)N[C@@H](CC(C)C)C(=O)N[C@@H](CCC(=O)O)C(=O)N[C@@H](CO)C(=O)N[C@@H](C)C(N)=O)C(C)C)C(=O)O", "note": "[Compound 16, H-H-Aib-QGTFTSDYSKYLDS-K(Hexadecanoyl-isoGlu)-AAEDFVEWLESA-NH2] (H-H[Aib]QGTFTSDYSKYLDSK([γGlu-Palmitoyl])AAEDFVEWLESA-NH2)", "values": [
      {"measurement": "Mean body weight change", "setting": "[1]", "result": "−12.2", "unit": "%"},
      {"measurement": "EC50", "setting": "[2]", "result": 1.85, "unit": "nM"}
    ]}
  ]
}
